In patent publication US6140309A, “Vasoactive effects and free radical generation by β-amyloid peptides” (University of South Florida, priority 1996, dated 2000):

Columns and labels:
aortic rings = assay: β-amyloid augmentation of phenylephrine (PE) induced contraction of aortic rings; format: cell-based, rat; conditions: for effect of drug on β-amyloid induced enhancement of PE mediated contraction: β-amyloid 5×10^-7 M, PE 4×10^-8 M, L-NMMA 10^-4 M, indomethacin 10^-5 M, SQ 29548 10^-5 M, catalase 1000 units/ml
Procedure: (§1) Freshly excised rat and porcine blood vessels were placed in Kreb's bicarbonate buffer equilibrated with 5% CO2 in O2. The buffer composition consisted of 118.2 mM NaCl, 4.7 mM KCl, 1.2 mM MgSO4, 2.5 mM CaCl2, 1.2 mM NaH2 PO4, 23 mM NaHCO3 and 11.2 mM glucose. After cleaning the vessels free of fat and other adhering tissues, the vessels were cut into ring segments of approximately 3mm in length. Care was taken not to damage the intimal surface.
(§2) The blood vessel preparations were mounted on stainless steel hooks attached to a force-displacement transducer and equilibrated under the optimum tension of 1.3 g for a period of sixty minutes in a tissue bath (10 ml) containing oxygenated (5% CO2 in O2) Kreb's buffer at 37° C. The buffer was changed every fifteen minutes. After equilibration for sixty minutes the viability of the blood vessel with intact endothelium was established by constricting the blood vessel using phenylephrine ([…]). This dose of phenylephrine elicited 80% of the maximum response. […] The vessel preparations were washed for fifteen minutes before various manipulations as described below.
The procedure was then repeated following incubation of the tissue with 10^-6 M β-amyloid for fifteen minutes (P1). The tissue was then rinsed and contractions repeated twice following fifteen minute incubation (P2 & P3) without further addition of β-amyloid. Arrows are shown for points of addition for P3.
Following a fifteen minute incubation, the preparations were contracted with 10^-7 M phenylephrine (PE) as described earlier. Control contractions with PE alone were carried out in presence of the various test compounds. Values represent the mean ±SEM of four or more experiments. The heat-inactivated SOD was prepared by placing it in boiling water for thirty minutes followed by cooling prior to use. The hydrogen peroxide-inactivated SOD was prepared by exposing SOD to 10 mM H2 O2 for thirty minutes at pH 8.5 and subsequent separation using Microcon filtration system. The amyloid induced PE contraction was blocked by active SOD. Neither albumin or inactivated SOD had any effect on the amyloid activity.
The effect of preincubation of blood vessel with 10^-6 M β-amyloidon contraction induced by phenylephrine (2,4,8, & 16×10^-8 M is shown in Table 1). The maximum contraction in the absence of β-amyloid is taken as 100% and the values obtained following exposure to β-amyloid are expressed as percent of control value. After washing out phenylephrine and acetylcholine of the control contraction, β-amyloid augmented the phenylephrine induced contractions (P1). This effect was blocked by SOD. Washing out the phenylephrine and acetylcholine of the post peptide contraction and repeating the contractions caused further enhancement (P2). Values represent the mean ±SEM of nine or more experiments.
The tissue was then incubated for fifteen minutes with β-amyloid (5×10^-7 M) with or without the drug, followed by contractions with PE. The concentrations compounds used were: L-NMMA, an inhibitor of NO synthase (10^-4 M); indomethacin, an inhibitor of the cyclooxygenase pathway (10^-5 M); SQ 29548, a thromboxane A2 receptor antagonist (10^-5 M); and catalase (1000 units/ml). Values are represented as percentage of the maximal contraction obtained with β-amyloid and PE alone and standardized to remove the intrinsic effects (if any) of each drug on PE contraction alone. The results represent the mean ±SEM of five or more experiments.

rat coronary arteries = assay: Constriction of rat coronary arteries by β-amyloid peptides and potentiation of U46619 constriction; format: cell-based; conditions: for coronary artery vasoactivity induced by β-amyloid fragments (real time recording): 10^-6 M β-amyloid peptide
Procedure: The effects of β-amyloid peptide were examined on samples of rat coronary arteries prepared as described above. Referring specifically to FIG. 1, rat coronary arteries were treated with β-amyloid peptide (Aβ40) causing constriction of the coronary arteries.
FIG. 3 illustrates the effect of various amyloid fragments on the constriction of rat coronary arteries. Following control constriction with 10^-7 M U46619, the tissue samples were rinsed, equilibrated with buffer, and treated with 10^-6 M Aβ peptides for fifteen minutes. Following treatment with the Aβ peptides, the blood vessels were rinsed and again exposed to U46619. The values are expressed as percent of control constriction produced by U46619 alone.

blood vessel = assay: Viability and endothelium test of blood vessel rings: phenylephrine constriction, acetylcholine relaxation; format: cell-based, rat; conditions: vessel with or without endothelium
Procedure: as §1
The endothelium was removed from some preparations by rubbing the inside of the lumen with a metal spatula for six to ten seconds and subsequent rinsing with buffer. The removal of endothelium was confirmed by testing for relaxation to acetylcholine [Furchgott and Zawadzki, 1980].
as §2

coronary arteries = assay: Acetylcholine induced relaxation of U46619-preconstricted coronary arteries after Aβ40; format: cell-based, rat; conditions: single dose 10^-6 M Aβ40; 10^-7 M U46619; acetylcholine 10^-9 M to 10^-5 M
From the text: The effect of pretreatment of coronary arteries with a single dose (10^-6 M) of Aβ40 on acetylcholine induced relaxation is shown in FIG. 20. The blood vessel was preconstricted with 10^-7 M U46619 and relaxed with increasing doses of acetylcholine (10^-9 M to 10^-5 M).

## CNC(=N)NCCC[C@H](N)C(=O)O [L-NMMA]
Aortic rings
  effect of drug on β-amyloid induced enhancement of PE mediated contraction: none of the compounds used (L-NMMA, indomethacin, SQ29548, or catalase) had any significant effect on the enhancement response

## O=C(O)CCC/C=C\C[C@@H]1[C@H](CNNC(=O)Nc2ccccc2)[C@H]2CC[C@@H]1O2 [SQ29548]
Aortic rings
  effect of drug on β-amyloid induced enhancement of PE mediated contraction: none of the compounds used (L-NMMA, indomethacin, SQ29548, or catalase) had any significant effect on the enhancement response

## CCCCC[C@H](O)/C=C/[C@@H]1[C@@H](C/C=C\CCCC(=O)O)[C@H]2CO[C@@H]1C2 [U46619]
Rat coronary arteries; U46619 10^-7 M
  effect of the vasoconstrictor on the coronary artery: also caused constriction of the blood vessel

## COc1ccc2c(c1)c(CC(=O)O)c(C)n2C(=O)c1ccc(Cl)cc1 [indomethacin]
Aortic rings
  effect of drug on β-amyloid induced enhancement of PE mediated contraction: none of the compounds used (L-NMMA, indomethacin, SQ29548, or catalase) had any significant effect on the enhancement response

## CNC[C@H](O)c1cccc(O)c1 [phenylephrine]
Blood vessel
  constriction in response to phenylephrine: constricted in response to phenylephrine with or without endothelium

## Aβ25-35: β-amyloid peptide fragment (GSNKGAIIGLM; Amyloid-beta protein 42; UniProt P05067 696-706, looked up, fragment)
Rat coronary arteries
  coronary artery vasoactivity induced by β-amyloid fragments (real time recording): induce constriction of the coronary artery

## Aβ40: Soluble Aβ containing forty amino acids
Rat coronary arteries; 10^-6 M
  duration of constriction compared among fragments: longest sustained constriction
Rat coronary arteries; 10^-6 M Aβ, fifteen minutes
  contraction induced in rat coronary artery: small but detectable contraction
Rat coronary arteries
  coronary artery vasoactivity induced by β-amyloid fragments (real time recording): induce constriction of the coronary artery
Rat coronary arteries; U46619 10^-7 M, 10^-6 M Aβ fifteen minutes
  vasoconstriction induced by U46619 following treatment with Aβ: significantly potentiated
Coronary arteries
  effect on vasodilation induced by acetylcholine: significantly reduced the vasodilation induced by acetylcholine

## albumin
Aortic rings; preincubation before 10^-6 M β-amyloid, fifteen minutes, 10^-7 M PE (FIG. 12c)
  effect of test compound on amyloid induced PE contraction (specificity of SOD action): did not protect the blood vessel against the effects of β-amyloid

## catalase
Aortic rings
  effect of drug on β-amyloid induced enhancement of PE mediated contraction: none of the compounds used (L-NMMA, indomethacin, SQ29548, or catalase) had any significant effect on the enhancement response
